Measurements published in patent publication US10342819B2, “Oligonucleotide having non-natural nucleotide at 5′-terminal thereof” (Kyowa Hakko Kirin Co., Ltd., priority 2014, dated 2019).

Target: T1, AGO2-MID domain (Homo sapiens, UniProt Q9UKV8)
T1 construct: mixed with an equal amount of a 5 μg/mL AGO2-MID domain solution
Assay: Biacore competition experiment of nucleotide (monomer) for the AGO2-MID domain (Test Examples 7 and 8)
Type: binding
Settings: Test Example 8; 2.5 μg/mL AGO2-MID domain solution containing the monomer at 100 μM; read-out: inhibition rate (%) (100 μM AGO2-MID domain solutions)
Protocol: HBS-EP+ 10× was diluted to 10-fold with pure water, and DTT was added thereto to give a final concentration of 2 mM, followed by filtration through a filter to prepare an HBS-EP+ 2 mM DTT aqueous solution. To this solution, dimethyl sulfoxide (DMSO) was added to give a final concentration of 1%, whereby a running buffer was prepared.
A monomer solution dissolved in DMSO or distilled water was diluted to 200 μM, 40 μM, 8 μM, and 1.6 μM/(2% DMSO, HBS-EP+, 2 mM DTT), and each of the diluted solutions was mixed with an equal amount of a 5 μg/mL AGO2-MID domain solution diluted with the HBS-EP+2 mM DTT solution, whereby 2.5 μg/mL AGO2-MID domain solutions containing the monomer at 100 μM, 20 μM, 4 μM, and 0.8 μM, respectively, were prepared as the HBS-EP+, 2 mM DTT, 1% DMSO solution.
A competition experiment by the siRNA was performed using a chip immobilized dT(16)-Biotin oligo thereon in the same manner as in Test Example 6. The flow rate is set to 30 μL/minute throughout the experiment, and one cycle is performed as follows: binding for 60 seconds, dissociation for 5 seconds, and regeneration 1 M NaCl for 5 seconds.
In order to stabilize the machine, the first 10 cycles are performed by adding only HBS-EP+, and thereafter, the measurement is performed for each monomer in the order of HBS-EP+(BLANK), a 2.5 μg/mL AGO2-MID domain solution (CONTROL), and 2.5 μg/mL AGO2-MID domain solutions (Sample) containing the monomer at 100 μM, 20 μM, 4 μM, and 0.8 μM, respectively, and a 2.5 μg/mL AGO2-MID domain solution (CONTROL). In the analysis, the binding level of the graph obtained by subtracting the graph for blank immobilization from the graph for the immobilized cell is used, and the residual binding ratio (%) is calculated according to ([Sample]−[BLANK])/([CONTROL]−[BLANK])×100, and the inhibition ratio (%) is calculated according to 100−(residual binding ratio).
In Table 36, the inhibition ratios (%) of 8-Br-dA (Compound I-1) and 5-fluoro-2′-deoxyuridine monophosphate (Compound I-4), and for comparison thereof, the inhibition ratios (%) of adenosine monophosphate (AMP) and uridine monophosphate (UMP) are shown.

inhibition at 100 µM [%] | Structure (SMILES)
85.2 | O=c1[nH]c(=O)n([C@@H]2O[C@H](COP(=O)(O)O)[C@@H](O)[C@H]2O)c2ccc([N+](=O)[O-])cc12 [compound I-23, ((2R,3S,4R,5R)-3,4-Dihydroxy-5-(6-nitro-2,4-dioxo-3,4-dihydroquinazolin-1(2H)-yl)tetrahydrofuran-2-yl)methyl phosphate]
88.4 | Cc1c(C#N)n([C@@H]2O[C@H](COP(=O)(O)O)[C@@H](O)[C@H]2O)c(=O)[nH]c1=O [compound I-24, ((2R,3S,4R,5R)-5-(6-cyano-5-methyl-2,4-dioxo-3,4-dihydropyrimidin-1 (2H)-yl)-3,4-dihydroxytetrahydrofuran-2-yl)methyl phosphate]
33.9 | O=P(O)(O)OC[C@H]1O[C@@H](n2cnc3c(-c4cccc5ccccc45)ncnc32)[C@H](O)[C@@H]1O [compound I-25, ((2R,3S,4R,5R)-3,4-Dihydroxy-5-(6-(naphthalen-1-yl)-9H-purin-9-yl)tetrahydrofuran-2-yl)methyl phosphate]
82.4 | O=P(O)(O)OC[C@H]1O[C@@H](n2cnc3c(-c4cccc(-c5ccccc5)c4)ncnc32)[C@H](O)[C@@H]1O [compound I-26, ((2R,3S,4R,5R)-5-(6-(Biphenyl-3-yl)-9H-purin-9-yl)-3,4-dihydroxytetrahydrofuran-2-yl)methyl phosphate]
92.4 | Nc1cccc(-c2ncnc3c2ncn3[C@@H]2O[C@H](COP(=O)(O)O)[C@@H](O)[C@H]2O)c1 [compound I-27, ((2R,3S,4R,5R)-5-(6-(3-Aminophenyl)-9H-purin-9-yl)-3,4-dihydroxytetrahydrofuran-2-yl)methyl phosphate]
77 | O=P(O)(O)OC[C@H]1O[C@@H](n2cnc3c(-c4cccc(N5CCOCC5)c4)ncnc32)[C@H](O)[C@@H]1O [compound I-28, ((2R,3S,4R,5R)-3,4-Dihydroxy-5-(6-(3-morpholinophenyl)-9H-purin-9-yl)tetrahydrofuran-2-yl)methyl phosphate]
77.9 | O=P(O)(O)OC[C@H]1O[C@@H](n2cnc3c(-c4cccc(OCc5ccccc5)c4)ncnc32)[C@H](O)[C@@H]1O [compound I-29, ((2R,3S,4R,5R)-5-(6-(3-(Benzyloxy)phenyl)-9H-purin-9-yl)-3,4-dihydroxytetrahydrofuran-2-yl)methyl phosphate]
73.2 | O=C(O)c1cccc(-c2ncnc3c2ncn3[C@@H]2O[C@H](COP(=O)(O)O)[C@@H](O)[C@H]2O)c1 [compound I-30, ((2R,3S,4R,5R)-5-(6-(3-(carboxy)phenyl)-9H-purin-9-yl)-3,4-dihydroxytetrahydrofuran-2-yl)methyl phosphate]
73.6 | O=c1[nH]c(=O)n([C@@H]2O[C@H](COP(=O)(O)O)[C@@H](O)[C@H]2O)cc1/C=C/c1ccccc1 [compound I-31, ((2R,3S,4R,5R)-5-(2,4-Dioxo-5-styryl-3,4-dihydropyrimidin-1(2H)-yl)-3,4-dihydroxytetrahydrofuran-2-yl)methyl phosphate]
82.9 | Cc1cn([C@@H]2O[C@H](COP(=O)(O)O)[C@@H](O)[C@H]2O)c(=O)[nH]c1=O [compound I-33, ((2R,3S,4R,5R)-3,4-Dihydroxy-5-(5-methyl-2,4-dioxo-3,4-dihydropyrimidin-1(2H)-yl)tetrahydrofuran-2-yl)methyl phosphate]
31.8 | Cc1cc(=O)[nH]c(=O)n1[C@@H]1O[C@H](COP(=O)(O)O)[C@@H](O)[C@H]1O [compound I-34, ((2R,3S,4R,5R)-3,4-Dihydroxy-5-(6-methyl-2,4-dioxo-3,4-dihydropyrimidin-1(2H)-yl)tetrahydrofuran-2-yl)methyl phosphate]
88 | O=c1[nH]c(=O)n([C@@H]2O[C@H](COP(=O)(O)O)[C@@H](O)[C@H]2O)c2cc(Cl)c([N+](=O)[O-])cc12 [compound I-35, ((2R,3S,4R,5R)-5-(7-Chloro-6-nitro-2,4-dioxo-3,4-dihydroquinazolin-1(2H)-yl)-3,4-dihydroxytetrahydrofuran-2-yl)methyl phosphate]
